By clearance is commonly meant the volume of plasma or blood freed of the substance per unit of time. By Ki is commonly meant a dissociation constant, usually derived from enzyme kinetics or from competition with a known ligand. Low readings indicate tighter binding, high ones weaker binding. As usually defined, the bioavailability is the share of a dose that reaches the circulation, judged against a reference dose that is usually intravenous. One may read the pKb as the Kb on a negative log10 scale, so that one unit is a factor of ten.

Activity calls are given as the source filed them. The calls are words filed in the database; no cut-off is given here.

Data set [1] in a line: Blood clearance in iv dosed rat. The settings on record: whole blood. It counts as ADME, organism-based.
For data set [2], the target named is T1, 5-hydroxytryptamine receptor 2A (Homo sapiens, UniProt P28223). Description: Displacement of [3H]ketanserin from 5HT2A receptor expressed in HEK293 cells. It counts as cell-based.
T1 sequence (P28223 whole entry): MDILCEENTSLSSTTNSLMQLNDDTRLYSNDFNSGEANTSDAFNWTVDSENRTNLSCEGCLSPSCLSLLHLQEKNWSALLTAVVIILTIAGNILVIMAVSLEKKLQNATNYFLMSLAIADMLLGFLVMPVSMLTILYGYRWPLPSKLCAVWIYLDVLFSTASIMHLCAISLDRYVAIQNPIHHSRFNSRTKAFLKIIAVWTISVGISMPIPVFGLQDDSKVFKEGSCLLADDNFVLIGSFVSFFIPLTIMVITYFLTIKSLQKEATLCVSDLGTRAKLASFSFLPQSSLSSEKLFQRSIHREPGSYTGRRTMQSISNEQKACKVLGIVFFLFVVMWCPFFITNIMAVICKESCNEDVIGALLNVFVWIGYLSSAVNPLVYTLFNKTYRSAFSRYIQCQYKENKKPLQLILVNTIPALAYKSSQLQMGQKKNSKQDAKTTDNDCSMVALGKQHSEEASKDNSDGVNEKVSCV
For data set [3], the target named is T2, 5-hydroxytryptamine receptor 2B (Homo sapiens, UniProt P41595). The data set can be described thus: Agonist activity at 5HT2B receptor expressed in HEK293 cells assessed as intracellular calcium mobilisation up to 10 uM. It counts as functional, cell-based. (In general: A change in cytosolic calcium serves as a functional read-out for many receptors and channels.)
T2 sequence (P41595 whole entry): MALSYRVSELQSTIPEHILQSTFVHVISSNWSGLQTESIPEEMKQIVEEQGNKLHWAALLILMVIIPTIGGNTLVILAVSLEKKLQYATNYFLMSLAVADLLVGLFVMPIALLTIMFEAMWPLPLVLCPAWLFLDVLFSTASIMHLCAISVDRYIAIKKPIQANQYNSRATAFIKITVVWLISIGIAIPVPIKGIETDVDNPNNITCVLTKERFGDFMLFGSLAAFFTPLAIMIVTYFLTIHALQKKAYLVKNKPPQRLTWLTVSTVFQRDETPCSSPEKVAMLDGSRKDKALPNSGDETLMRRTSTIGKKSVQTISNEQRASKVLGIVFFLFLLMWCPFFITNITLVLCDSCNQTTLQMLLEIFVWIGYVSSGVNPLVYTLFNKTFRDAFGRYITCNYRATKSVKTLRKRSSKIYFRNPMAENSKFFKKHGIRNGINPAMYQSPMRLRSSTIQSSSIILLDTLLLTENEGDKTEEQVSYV

A short description of data set [4]: Oral bioavailability in po dosed rat. In kind it is ADME, organism-based. The note with it: in vivo.
The target of data set [5] is T3, 5-hydroxytryptamine receptor 2C (Homo sapiens, UniProt P28335).
T3 sequence (P28335 whole entry): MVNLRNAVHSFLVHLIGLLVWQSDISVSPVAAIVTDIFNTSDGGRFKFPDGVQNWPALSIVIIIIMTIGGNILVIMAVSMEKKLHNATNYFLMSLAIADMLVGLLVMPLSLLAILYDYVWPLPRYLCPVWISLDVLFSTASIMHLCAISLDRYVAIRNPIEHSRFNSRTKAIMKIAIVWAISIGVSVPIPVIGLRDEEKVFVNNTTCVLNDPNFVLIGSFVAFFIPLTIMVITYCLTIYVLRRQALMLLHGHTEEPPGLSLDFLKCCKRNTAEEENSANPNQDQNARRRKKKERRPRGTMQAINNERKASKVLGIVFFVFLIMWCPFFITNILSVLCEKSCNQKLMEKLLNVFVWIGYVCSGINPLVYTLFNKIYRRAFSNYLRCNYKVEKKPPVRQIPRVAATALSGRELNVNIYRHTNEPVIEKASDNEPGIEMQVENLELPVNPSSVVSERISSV
Description: Displacement of [3H]mesulergine from 5HT2C receptor expressed in HEK293 cells. In kind it is cell-based.

Data set [6] concerns the target T1, 5-hydroxytryptamine receptor 2A. Description: Agonist activity at 5HT2A receptor expressed in HEK293 cells assessed as intracellular calcium mobilisation up to 10 uM. It counts as functional, cell-based.
The target of data set [7] is T2, 5-hydroxytryptamine receptor 2B. Description: Displacement of [3H]5-HT from 5HT2B receptor expressed in HEK293 cells. In kind it is cell-based. (In general: In a radioligand displacement assay an active substance lowers the binding of a labelled ligand.)
Data set [8] addresses T4, 5-hydroxytryptamine receptor 2C (Homo sapiens) (UniProt P28335).
T4 sequence (whole entry): T3 sequence (P28335 whole entry)
Description: Agonist activity at 5HT2C receptor expressed in HEK293 cells assessed as intracellular calcium mobilisation up to 10 uM. In kind it is functional, cell-based.

A short description of data set [9]: Volume of distribution in iv dosed rat. It counts as ADME, organism-based. The settings on record: in vivo, read-out: Vdss.
Data set [10] concerns the target T4, 5-hydroxytryptamine receptor 2C (Homo sapiens). The data set can be described thus: Antagonist activity at 5HT2C receptor expressed in HEK293 cells assessed as blockade of 5-hydroxytryptamine-induced intracellular calcium mobilisation. In kind it is functional, cell-based.

As to `COc1ccc(N2Cc3cc(Cl)c(C)c(Cl)c3C2=O)cc1OCCN1CCC(C)CC1`, in data set [1], the clearance came out at 43 mL/min/kg. Moreover, the Ki is 631 nM in data set [2], 1.26 nM in data set [5] and 63.1 nM in data set [7]. In addition, the result in data set [3], in data set [6] and in data set [8] was inactive. In data set [4], the bioavailability was 24%. In addition, the Vd in data set [9] is 9.1 L/kg.
`COc1ccc(N2Cc3cc(C)cc(C)c3C2=O)cc1OCCN1CCC(C)CC1`: the clearance in data set [1] was 59 mL/min/kg. Also, the inhibition constant Ki in data set [2] is 1260 nM; in [5], 3.16 nM; in data set [7], 316 nM. Besides, the outcome in data set [3], in [6] and in data set [8] was inactive. The bioavailability in data set [4] worked out at 10%. In [9], the Vd worked out at 7.8 L/kg.
As to `COc1ccc(N2Cc3cc(Cl)cc(Cl)c3C2=O)cc1OCCN1CCC(C)CC1`, the clearance in data set [1] is 50 mL/min/kg. In addition, the Ki was 398 nM in data set [2], 1.58 nM in data set [5] and 200 nM in [7]. Besides, the pKb in data set [10] is 8.8. Further, the outcome in data set [3], in data set [6] and in data set [8] was inactive. The Vd in data set [9] was 5.8 L/kg.
Turning to `COc1ccc(N2Cc3cc(Cl)c(Cl)cc3C2=O)cc1OCCN1CCC(C)CC1`, in data set [1], the clearance amounted to 16 mL/min/kg. Further, the results for the inhibitory constant (Ki) in data set [2], in data set [5] and in [7] were 501 nM, 5.01 nM and 200 nM, respectively. For the same compound, the outcome in data set [3], in data set [6] and in data set [8] was inactive. Moreover, in data set [4], the bioavailability was 22%. Also, in [9], the Vd turned out to be 8.5 L/kg.
In [1], `COc1ccc(N2Cc3c(F)ccc(C(F)(F)F)c3C2=O)cc1OCCN1CCC(C)CC1` yielded a clearance of 48 mL/min/kg. Moreover, the figures for the Ki in data set [2], in [5] and in data set [7] were greater than 1000 nM, 6.31 nM and greater than 1000 nM, respectively. Further, the outcome in data set [3], in [6] and in data set [8] was inactive. Further, in [4], the bioavailability is 4%. Also, in data set [9], the Vd was 1.9 L/kg.
With `COc1ccc(N2Cc3cccc(Cl)c3C2=O)cc1OCCN1CCC(C)CC1`, the results for the Ki in [2], in data set [5] and in data set [7] were 794 nM, 1.58 nM and 126 nM, respectively. Further, the pKb in data set [10] turned out to be 8.7. Besides, the result in data set [3], in data set [6] and in data set [8] was inactive.
Regarding `COc1ccc(N2Cc3cc(Cl)c(Cl)c(C)c3C2=O)cc1OCCN1CCC(C)CC1`, the clearance in [1] was 16 mL/min/kg. In addition, the Ki is 398 nM in data set [2], 2.51 nM in data set [5] and 100 nM in [7]. Further, the result in data set [3], in [6] and in data set [8] was inactive. Also, the bioavailability in data set [4] turned out to be 43%. In addition, in data set [9], the Vd was 6.8 L/kg.

Values taken from ChEMBL document CHEMBL1146272, “Isoindolone derivatives, a new class of 5-HT2C antagonists: synthesis and biological evaluation” (Bioorg Med Chem Lett, 2007).
